Laboratory results taken from patent US9340493B2, “Hydroxamic acid derivatives useful as antibacterial agents” (Pfizer Inc., priority 2008, dated 2016).
Values after ≈ are worked out from the molar mass of the structure shown.

Columns and labels:
[1] = target: T1, Pseudomonas aeruginosa LpxC enzyme (Pseudomonas aeruginosa, UniProt P47205); experiment: IC50 assay, LpxC enzyme from P. aeruginosa; format: biochemical; conditions: 0.5 nM enzyme, 25° C., pH 8.0, 20 min; ** = average of 2-8 assays
T1 construct: made in house; host or cells: E. coli
T1 sequence (P47205 1-303): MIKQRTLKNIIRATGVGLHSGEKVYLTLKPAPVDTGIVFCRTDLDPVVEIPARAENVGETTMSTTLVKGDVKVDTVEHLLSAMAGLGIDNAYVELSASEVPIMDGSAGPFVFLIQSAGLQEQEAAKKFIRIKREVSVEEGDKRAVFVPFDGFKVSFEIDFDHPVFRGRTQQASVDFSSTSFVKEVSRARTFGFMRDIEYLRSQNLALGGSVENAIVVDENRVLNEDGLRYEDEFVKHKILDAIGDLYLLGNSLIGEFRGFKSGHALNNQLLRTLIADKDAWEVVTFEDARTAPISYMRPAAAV
Method in brief: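 P. aeruginosa LpxC (0.5 nM, expressed in E. coli) reacted with 0.5 uM ³H-acetyl-labelled UDP-3-O-(R-3-hydroxydecanoyl)-GlcNAc in 50 mM sodium phosphate pH 8.0 with 1 mg/ml BSA at 25 °C for 20 min. Charcoal stopped the reaction, and filtrate radioactivity was counted by scintillation after no-enzyme background subtraction.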

P. aeruginosa PAO280 = experiment: MIC determination, P. aeruginosa PAO280; format: cell-based; conditions: Pseudomonas aeruginosa, PAO280, read-out: MIC (ug/mL) P. aeruginosa PAO280
Method in brief: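 Broth dilution MIC per CLSI M7-A7/M100-S18 guidelines. Strain PAO280 lacks efflux pumps MexAB-oprM, MexXY and MexZ.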

P. aeruginosa UI-18 = experiment: MIC determination, P. aeruginosa UI-18; format: cell-based; conditions: Pseudomonas aeruginosa, UI18; wild-type; * = arithmetic mean of 2-6 MIC determinations; read-out: MIC (ug/mL) P. aeruginosa UI-18
Method in brief: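 MIC by broth dilution following CLSI M7-A7 and M100-S18 guidelines, tested against wild-type P. aeruginosa UI-18.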

[2] = tested on: Acinetobacter baumanii/haemolyticus; experiment: MIC determination, A. baumanii/haemolyticus; format: cell-based; conditions: Acinetobacter baumannii; multidrug-resistant clinical isolate; * = arithmetic mean of 2-6 MIC determinations; read-out: MIC (ug/mL) A. baumanii/haemolyticus
Method in brief: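 MICs were determined by CLSI broth dilution (M7-A7, M100-S18) against a multidrug-resistant clinical isolate of Acinetobacter baumanii/haemolyticus.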

Enterobacter aerogenes = experiment: MIC determination, E. aerogenes; format: cell-based; conditions: Klebsiella aerogenes; quinolone-resistant, ESBL-expressing clinical isolate; * = arithmetic mean of 2-6 MIC determinations; read-out: MIC (ug/mL) E. aerogenes
Method in brief: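 Clinical E. aerogenes isolate, quinolone-resistant and ESBL-expressing. MIC measured in vitro by dilution testing according to CLSI guidelines (M7-A7, M100-S18).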

Escherichia coli EC-1 = experiment: MIC determination, E. coli EC-1; format: cell-based; conditions: EC1, EC-1: VOGEL, * = arithmetic mean of 2-6 MIC determinations, read-out: MIC (ug/mL) E. coli EC-1
Method in brief: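 Minimum inhibitory concentration against Escherichia coli EC-1 was determined in vitro by dilution susceptibility testing under CLSI M7-A7 and M100-S18 guidelines.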

Klebsiella pneumoniae = experiment: MIC determination, K. pneumoniae; format: cell-based; conditions: ciprofloxacin-resistant, ESBL-expressing clinical isolate, * = arithmetic mean of 2-6 MIC determinations, read-out: MIC (ug/mL) K. pneumoniae
Method in brief: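 MIC determined by broth dilution per CLSI M7-A7 and M100-S18 guidelines. Strain: ciprofloxacin-resistant, ESBL-expressing clinical isolate of K. pneumoniae.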

[3] = tested on: Staphylococcus aureus ATCC 29213; experiment: MIC determination, S. aureus ATCC 29213; format: cell-based; conditions: ATCC29213, CLSI quality control reference strain, * = arithmetic mean of 2-6 MIC determinations, read-out: MIC (ug/mL) S. aureus ATCC 29213
Method in brief: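 MIC was measured by dilution susceptibility testing following CLSI guidelines (M7-A7; M100-S18). The test organism is the CLSI quality-control reference strain.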

Compound	IC50 [1] [µM]	MIC (P. aeruginosa PAO280) [µg/mL]	MIC (P. aeruginosa UI-18) [µg/mL]	MIC [2] [µg/mL]	MIC (Enterobacter aerogenes) [µg/mL]	MIC (Escherichia coli EC-1) [µg/mL]	MIC (Klebsiella pneumoniae) [µg/mL]	MIC [3] [µg/mL]
C[S+]([O-])c1cc([C@H](O)[C@](C)(OCc2ccc(-c3ccc(F)cc3)cc2)C(=O)NO)no1 (stereo partly drawn) [Example 44, (2S,3S)-2-[(4′-fluorobiphenyl-4-yl)methoxy]-N,3-dihydroxy-2-methyl-3-[5-(methylsulfinyl)isoxazol-3-yl]propanamide]	0.000283	0.015 (≈ 0.0334 µM)	1 (≈ 2.23 µM)	32 (≈ 71.4 µM)	> 64	8 (≈ 17.8 µM)	32 (≈ 71.4 µM)	> 64
C[C@@](OCc1ccc(-c2ccccc2)cc1)(C(=O)NO)[C@@H](O)c1ccn[nH]1 [Example 45, (2S,3S)-2-(biphenyl-4-ylmethoxy)-N,3-dihydroxy-2-methyl-3-(1H-pyrazol-3-yl)propanamide]	0.00195	0.25 (≈ 0.68 µM)	16 (≈ 43.5 µM)	> 32	> 32	> 32	> 32	> 32
C[C@@](OCc1ccc(-c2ccc(-c3cnco3)cc2)cc1)(C(=O)NO)[C@@H](O)c1ccc(CO)o1 [Example 46, (2S,3S)-N,3-dihydroxy-3-[5-(hydroxymethyl)-2-furyl]-2-methyl-2-{[4′-(1,3-oxazol-5-yl)biphenyl-4-yl]methoxy}propanamide]	0.000366	0.25 (≈ 0.538 µM)	4 (≈ 8.61 µM)	> 8	> 8	> 8	> 8	> 8
CC(OCc1ccc(-c2ccccc2)cc1)(C(=O)NO)C1(O)CCC1 (stereo not shown) [Example 48, 2-(biphenyl-4-ylmethoxy)-N-hydroxy-2-(1-hydroxycyclobutyl)propanamide]	0.00623	< 0.06	16 (≈ 46.9 µM)	> 64	> 64	> 64	> 64	> 64
CNC(=O)C(C)(OCc1ccc(-c2ccc(-c3cc(CO)no3)cc2)cc1)C(=O)NO (stereo not shown) [Example 49, N-hydroxy-2-({4′-[3-(hydroxymethyl)isoxazol-5-yl]biphenyl-4-yl}methoxy)-N′,2-dimethylmalonamide]	0.00175	0.045 (≈ 0.106 µM)	2 (≈ 4.7 µM)	> 16	> 16	8 (≈ 18.8 µM)	> 16	> 16
CCCc1ccc(-c2ccc(COC(CO)(CO)C(=O)NO)cc2)cc1 [Example 51, N,3-dihydroxy-2-(hydroxymethyl)-2-[(4′-propylbiphenyl-4-yl)methoxy]propanamide]	0.00186	1 (≈ 2.78 µM)	> 16	> 16	> 16	> 16	> 16	> 16
Cc1cc(CNC(=O)C(C)(OCc2ccc(-c3ccc(F)cc3)nc2)C(=O)NO)no1 (stereo not shown) [Example 53, 2-{[6-(4-fluorophenyl)pyridin-3-yl]methoxy}-N-hydroxy-2-methyl-N′-[(5-methylisoxazol-3-yl)methyl]malonamide]	0.0143	0.5 (≈ 1.17 µM)	32 (≈ 74.7 µM)	64 (≈ 149 µM)	> 64	16 (≈ 37.3 µM)	> 64	> 64
CC(CO)(OCc1ccc(-c2ccc(-c3cc(CN4CCOCC4)no3)cc2)cc1)C(=O)NO (stereo not shown) [Example 55, N,3-dihydroxy-2-methyl-2-({4′-[3-(morpholin-4-ylmethyl)isoxazol-5-yl]biphenyl-4-yl}methoxy)propanamide]	0.00399	0.5 (≈ 1.07 µM)	32 (≈ 68.4 µM)	> 64	> 64	> 64	> 64	> 64
CC(OCc1ccc(-c2ccccc2)cc1)(C(=O)NO)C(=O)NCc1nnn[nH]1 (stereo not shown) [Example 57, 2-(biphenyl-4-ylmethoxy)-N-hydroxy-2-methyl-N′-(1H-tetrazol-5-ylmethyl)malonamide]	0.00134	4 (≈ 10.1 µM)	> 64	> 64	> 64	> 64	> 64	> 64
CC(CO)(OCc1ccc(-c2ccc(Cl)cc2)cc1)C(=O)NO (stereo not shown) [Example 62, 2-[(4′-chlorobiphenyl-4-yl)methoxy]-N,3-dihydroxy-2-methylpropanamide]	0.00417	1 (≈ 2.98 µM)	32 (≈ 95.3 µM)	> 32	> 32	> 32	> 32	> 32
CC(CO)(OCc1ccc(-c2ccc(F)cc2F)cc1)C(=O)NO (stereo not shown) [Example 66, 2-[(2′,4′-difluorobiphenyl-4-yl)methoxy]-N,3-dihydroxy-2-methylpropanamide]	0.00332	1.5 (≈ 4.45 µM)	64 (≈ 190 µM)	> 64	> 64	> 64	> 64	> 64
CC(OCc1ccc(-c2ccccc2)cc1)(C(=O)NO)C(=O)NCc1cc(-c2ccccc2)on1 (stereo not shown) [Example 67, 2-(biphenyl-4-ylmethoxy)-N-hydroxy-2-methyl-N′-[(5-phenylisoxazol-3-yl)methyl]malonamide]	0.0032	0.5 (≈ 1.06 µM)	4 (≈ 8.48 µM)	8 (≈ 17 µM)	> 16	16 (≈ 33.9 µM)	> 16	> 16
CC(OCc1ccc(-c2ccccc2)cc1)(C(=O)NO)C(=O)NCc1nc(-c2ccccc2)no1 (stereo not shown) [Example 69, 2-(biphenyl-4-ylmethoxy)-N-hydroxy-2-methyl-N′-[(3-phenyl-1,2,4-oxadiazol-5-yl)methyl]malonamide]	0.00446	0.75 (≈ 1.59 µM)	12 (≈ 25.4 µM)	16 (≈ 33.9 µM)	> 16	16 (≈ 33.9 µM)	> 16	> 16
Cc1cccnc1CCNC(=O)C(C)(OCc1ccc(-c2ccccc2)cc1)C(=O)NO (stereo not shown) [Example 70, 2-(biphenyl-4-ylmethoxy)-N-hydroxy-2-methyl-N′-[2-(3-methylpyridin-2-yl)ethyl]malonamide]	0.00804	1 (≈ 2.31 µM)	32 (≈ 73.8 µM)	32 (≈ 73.8 µM)	> 64	16 (≈ 36.9 µM)	> 64	> 64
CC(OCc1ccc(-c2ccccc2)cc1)(C(=O)NO)C(=O)NCc1ccncn1 (stereo not shown) [Example 71, 2-(biphenyl-4-ylmethoxy)-N-hydroxy-2-methyl-N′-(pyrimidin-4-ylmethyl)malonamide]	0.00394	0.125 (≈ 0.308 µM)	16 (≈ 39.4 µM)	> 64	> 64	32 (≈ 78.7 µM)	> 64	> 64
CC(OCc1ccc(-c2ccccc2)cc1)(C(=O)NO)C(=O)NCc1cn2ccccc2n1 (stereo not shown) [Example 83, 2-(biphenyl-4-ylmethoxy)-N-hydroxy-N′-(imidazo[1,2-a]pyridin-2-ylmethyl)-2-methylmalonamide]	0.00218	0.125 (≈ 0.281 µM)	8 (≈ 18 µM)	64 (≈ 144 µM)	> 64	16 (≈ 36 µM)	64 (≈ 144 µM)	> 32
Cc1cc(CNC(=O)C(C)(OCc2ccc(-c3ccc(-c4cc(CO)no4)cc3)cc2)C(=O)NO)no1 (stereo not shown) [Example 84, N-hydroxy-2-({4′-[3-(hydroxymethyl)isoxazol-5-yl]biphenyl-4-yl}methoxy)-2-methyl-N′-[(5-methylisoxazol-3-yl)methyl]malonamide]	0.000861	0.06 (≈ 0.118 µM)	2 (≈ 3.95 µM)	> 64	16 (≈ 31.6 µM)	1 (≈ 1.97 µM)	8 (≈ 15.8 µM)	> 64
